Read-outs that look alike come from different tables or passages of the source.
Test system: BV-2 (mouse microglia) cells
Assay: progranulin secretion from BV-2 cells, mouse progranulin ELISA of conditioned media
Assay type: cell-based
Settings: for EC50: BV-2 cells, 16 hours incubation, 8-point curves starting at 10 μM
Method: BV-2 cells are split the day before plating into a 96 well plate format at approximately 80%. Cells should be plated the day before and allowed for 1 hour attachment period and for 16 hour incubation. […] Standard ELISA kits to measure PGRN are available from vendors such as Adipogen, R&D, and Biovendor.
Compound potency was determined by measuring progranulin secretion from BV-2 (mouse microglia) cells. BV-2 cells were grown in RPMI with 2 mM L-glutamine supplemented with 10% fetal bovine serum. On the day of the assay, cells were plated in 96-well plates at a density of 30,000 cells/well in RPMI (Roswell Park Memorial Institute media)/L-glutamine supplemented with 2% Fetal clone serum II (plating media) and left to adhere for 1 hour. Following attachment to the plate, media was replaced with treatment (8-point curves in half-log dilutions starting at 10 μM) in plating media and incubated for 16 hours. Secreted progranulin was measured from a 1:10 dilution of the conditioned media using the R&D Systems mouse progranulin ELISA kit (cat #DY2557) and following the manufacturer's instructions.

[1] = Mus musculus, BV-2, 16 h, assay run v1, read-out: PRGN v1 (EC50, progranulin secretion)
[2] = Mus musculus, BV-2, 16 h, assay run v2 (same protocol, different assay), read-out: PRGN v2 (EC50, progranulin secretion)
[3] = Mus musculus, assay run v2 (same protocol, different assay), read-out: PRGN v2 (EC50, progranulin secretion)
[4] = assay run v2 (same protocol, different assay), read-out: PRGN v2 (EC50, progranulin secretion)

Structure (SMILES)	EC50 [1] [µM]	EC50 [2] [µM]	EC50 [3] [µM]	other results
O=C(N[C@@H]1CN2CCC1CC2)N1CCc2ccccc2[C@H]1c1ccc2cncn2c1 [Compound 1112]	> 10	> 10		
O=C(N[C@@H]1CN2CCC1CC2)N1CCc2ccccc2[C@@H]1c1ccc(-n2cnnc2)cc1 [Compound 1113]	3.59	> 10		
O=C(N[C@@H]1CN2CCC1CC2)N1CCc2ccccc2[C@H]1c1ccc(-n2cnnc2)cc1 [Compound 1114]	> 10	> 10		
O=C(N[C@@H]1CN2CCC1CC2)N1CCc2ccccc2[C@@H]1c1ccc(OC2CC2)cc1 [Compound 1115]	3.95	1.18		
O=C(N[C@@H]1CN2CCC1CC2)N1CCc2ccccc2[C@H]1c1ccc(OC2CC2)cc1 [Compound 1116]	4.47	> 10		
O=C(N[C@@H]1CN2CCC1CC2)N1CCc2ccccc2[C@@H]1c1cnc2nccn2c1 [Compound 1117]	> 10	> 10		
O=C(N[C@@H]1CN2CCC1CC2)N1CCc2ccccc2[C@H]1c1cnc2nccn2c1 [Compound 1118]	> 10	> 10		
O=C1CCCN1c1ccc([C@H]2c3ccccc3CCN2C(=O)N[C@@H]2CN3CCC2CC3)cc1 [Compound 1119]	> 10	> 10		
O=C1CCCN1c1ccc([C@@H]2c3ccccc3CCN2C(=O)N[C@@H]2CN3CCC2CC3)cc1 [Compound 1120]	> 10	> 10		
O=C(N[C@@H]1CN2CCC1CC2)N1CCc2cccnc2[C@@H]1c1ccc(Cl)cc1 [Compound 1121]	> 10	5.22		
O=C(N[C@@H]1CN2CCC1CC2)N1CCc2cccnc2[C@H]1c1ccc(Cl)cc1 [Compound 1122]	3.13	> 10		
CS(=O)(=O)N1CC([C@H]2c3ccccc3CCN2C(=O)N[C@@H]2CN3CCC2CC3)C1 [Compound 1123]	> 10	> 10		
CS(=O)(=O)N1CC([C@@H]2c3ccccc3CCN2C(=O)N[C@@H]2CN3CCC2CC3)C1 [Compound 1124]	> 10	> 10		
O=C(Cc1ccccc1)N1CCc2ccccc2[C@@H]1c1ccc(F)cc1 [Compound 1125, (S)-1-(1-(4-fluorophenyl)-3,4-dihydroisoquinolin-2(1H)-yl)-2-phenylethanone]		> 10		
O=C(O[C@@H]1CN2CCC1CC2)N1CCc2ccccc2[C@@H]1c1ccc(C(F)(F)F)cc1 [Compound 1126]			8.6	
O=C(O[C@@H]1CN2CCC1CC2)N1CCc2ccccc2[C@H]1c1ccc(C(F)(F)F)cc1 [Compound 1127]			> 10	
O=C(O[C@@H]1CN2CCC1CC2)N1CCc2ccccc2[C@@H]1c1ccc(OC(F)(F)F)cc1 [Compound 1128]			2.6	
O=C(O[C@@H]1CN2CCC1CC2)N1CCc2ccccc2[C@H]1c1ccc(OC(F)(F)F)cc1 [Compound 1129]			4.35	
CN(C(=O)N1CCc2ccccc2[C@@H]1c1ccc(F)cc1)[C@@H]1CN2CCC1CC2 [Compound 1130]		1.03		
CN(C(=O)N1CCc2ccccc2[C@@H]1c1ccc(F)cc1)[C@H]1CN2CCC1CC2 [Compound 1131]		> 10		

Structure (SMILES)	EC50 [1] [µM]	EC50 [2] [µM]	EC50 [3] [µM]	other results
Cc1nc2cc([C@H]3c4ccccc4CCN3C(=O)O[C@@H]3CN4CCC3CC4)ccc2s1 [Compound 1132]			> 10	
Cc1nc2cc([C@@H]3c4ccccc4CCN3C(=O)O[C@@H]3CN4CCC3CC4)ccc2s1 [Compound 1133]			9.28	
O=C(O[C@@H]1CN2CCC1CC2)N1CCc2ccccc2[C@@H]1COc1ccc(F)cc1 [Compound 1134]				EC50 [4]: > 10 µM
O=C(O[C@@H]1CN2CCC1CC2)N1CCc2ccccc2[C@H]1COc1ccc(F)cc1 [Compound 1135]				EC50 [4]: > 10 µM
O=S(=O)(C[C@@H]1CN2CCC1CC2)N1CCc2ccccc2[C@@H]1c1ccc(F)cc1 [Compound 1136]		1.7		
O=S(=O)(C[C@H]1CN2CCC1CC2)N1CCc2ccccc2[C@@H]1c1ccc(F)cc1 [Compound 1137]		4.41		
Cc1nc2ccc([C@H]3c4ccccc4CCN3C(=O)O[C@@H]3CN4CCC3CC4)cc2o1 [Compound 1138]			> 10	
Cc1nc2ccc([C@@H]3c4ccccc4CCN3C(=O)O[C@@H]3CN4CCC3CC4)cc2o1 [Compound 1139]			> 10	
O=S(=O)(C[C@@H]1CN2CCC1CC2)N1CCc2ccccc2[C@@H]1c1ccccc1 [Compound 1140]		> 10		
O=S(=O)(C[C@@H]1CN2CCC1CC2)N1CCc2ccccc2[C@H]1c1ccccc1 [Compound 1141]		3.36		
O=S(=O)(C[C@H]1CN2CCC1CC2)N1CCc2ccccc2[C@@H]1c1ccccc1 [Compound 1142]		> 10		
O=S(=O)(C[C@H]1CN2CCC1CC2)N1CCc2ccccc2[C@H]1c1ccccc1 [Compound 1143]		> 10		
CC1(C)[C@@H](OC(=O)N2CCc3ccccc3[C@@H]2c2ccc(F)cc2)C2CCN1CC2 [Compound 1144]				EC50 [4]: > 10 µM
CC1(C)[C@H](OC(=O)N2CCc3ccccc3[C@@H]2c2ccc(F)cc2)C2CCN1CC2 [Compound 1145]				EC50 [4]: 0.57 µM
COCCOCCOCCNC(=O)c1ccc([C@H]2c3ccccc3CCN2C(=O)O[C@@H]2CN3CCC2CC3)cc1 [Compound 1146]			> 10	
COCCOCCOCCNC(=O)c1ccc([C@@H]2c3ccccc3CCN2C(=O)O[C@@H]2CN3CCC2CC3)cc1 [Compound 1147]			> 10	
CC1(C)[C@@H](OC(=O)N2CCc3ccccc3[C@@H]2c2cccc(F)c2F)C2CCN1CC2 [Compound 1148]			> 10	
CC1(C)C(OC(=O)N2CCc3ccccc3[C@H]2c2cccc(F)c2F)C2CCN1CC2 (stereo partly shown) [Compound 1149]			0.43	
O=C(O[C@H]1CN2CCC1CC2)N1CCc2ccccc2[C@@H]1c1ccccc1 [Solifenacin, solifenacin, reference compound]				secretion of progranulin from mouse BV2 cells (mouse BV2 cells): causes the secretion of progranulin from mouse BV2 cells
